# Reference: patent US6855549B1, “Methods and compositions for increasing the infectivity of gene transfer vectors” (The University of Iowa Research Foundation, priority 1998, dated 2005)
# “Also recorded” adds a separate entry of the source. Like-named read-outs stand apart in the source and are kept apart here.
# Assays:
# [1] = tested on: differentiated human airway epithelia; assay type: cell-based; conditions: VSV-G pseudotyped HIV-based lentivirus
# [2] = tested on: differentiated human airway epithelial cells; assay type: cell-based
# [3] = tested on: differentiated human airway epithelia; assay: Transepithelial resistance of KGF-treated airway epithelia with Ca2+ chelators; assay type: cell-based; conditions: 6 mM chelator, isotonic (220 mmol/kg)
# Description: Differentiated epithelial cells were treated with 100 ng/ml KGF for 24 hr. Different concentrations of each calcium chelator in HEPES/HCl (pH 7.4) or in isotonic HEPES/saline (pH 7.4) buffer were mixed with vector buffer and applied to the apical surface for times as specified (Wang et al., 1998). Transepithelial resistance was measured with an Ohmmeter (EVOM; World Precision Instruments, Inc. Sarasota, Fla.) by adding cell culture media to the apical surface and the values were compared to untreated controls.
# To understand whether the tonicity of the vector solution affects epithelial permeability and gene transfer efficiency, hypotonic (40 mmol/kg) or isotonic (220 mmol/kg) solutions of 6 mM EGTA, EDTA or BAPTA were added to the MuLV vector buffer and applied to the apical surface of differentiated airway epithelial cells pre-treated with KGF. At specific time intervals, transepithelial resistance (R1) was measured using an Ohmmeter.
# [4] = tested on: differentiated human airway epithelia; assay type: cell-based
# [5] = tested on: primary cultures of human airway epithelia; assay: EGTA dose range for gene transfer on primary cultures of human airway epithelia; assay type: cell-based; conditions: MuLV or FIV based retroviruses, MOI 10, range tested 0-96 mM, 4 hrs apical
# Description: The optimal dose range for EGTA was determined on primary cultures of human airway epithelia Gene transfer efficiency with apical application of MuLV or FIV based retrovirus (MOI 10) or adenovirus (MOI 50) was determined over a range of EGTA concentrations from 0-96 mM. The vectors were diluted 1:1 (vol/vol) with a buffer consisting of water, 10 mM HEPES and the appropriate amount of EGTA. The vector formulation was left on the apical surface of the cells for 4 hrs, then removed. Gene transfer efficiency was evaluated 3 days later by X-gal staining for beta galactosidase expression.
# [6] = tested on: rabbit tracheal epithelium; assay: Tracheal transepithelial voltage (Vt) in anesthetized rabbits; assay type: in vivo
# Description: Rabbit studies. The transepithelial electrical potential difference across the rabbit tracheal epithelium (Vt) was measured using a modification of previously described methods (Zabner et al., 1996). The reference electrode was a subcutaneous needle connected with sterile normal saline solution to a silver/silver chloride pellet. Adult New Zealand white rabbits (n=4/group) were anesthetized with 32 mg/kg ketamine, 5.1 mg/kg xylazine and 0.8 mg/kg acepromazine intramuscularly and placed with the head in the dependent position. An exploring electrode (pediatric size 8 Teflon-coated latex double lumen Foley catheter, modified Ruseh, Inc., Duluth, Ga.) was inserted into the tracheal lumen via a tracheotomy incision. One lumen of the catheter was filled with sterile normal saline solution and was connected to a silver/silver chloride pellet. Voltage was measured with a voltmeter connected to a strip chart recorder. The catheter was then left in that position for the entire recording period. The solutions were administered through the second lumen in the following order: 1) Normal saline for 5 min; 2) Sterile water with 10 mM EGTA for 10 min; 3) Normal saline with 10 mM EGTA for 5 min; and 4) Normal saline with 10 mM EGTA plus 100 μM amiloride for 5 min. Measurements of Vt were read by two investigators who were blinded to the treatment received. There wre no discrepancies in readings of greater than 2 mV between the investigators. Disruption of epithelial junctions was assessed by detecting a fall in […] Vt after perfusion with the chelator, and by the loss of amiloride-sensitive Vt after perfusion with the chelator solution.
# [7] = tested on: polarized human bronchial epithelial cells; assay: Transepithelial resistance of polarized bronchial cultures after hypotonic EGTA; assay type: cell-based; conditions: 3 mM EGTA-H2O, 10 min, 37° C., immediate
# Description: For the UV irradiation studies, Millicell inserts were put transiently into empty 100-mm tissue culture plates (apical side up) and exposed to 25 J/m^2 of UV light (254 nm). After irradiation, the Millicell inserts were quickly returned to plates containing Ultraser G culture medium on the basolateral side. Infections with rAAV were performed immediately following UV irradiation by application of 5×10^9 rAAV particles in 100 μl to either the apical or basolateral side of the support membrane as described above. Keratinocyte growth factor (KGF) treatment was performed at a final concentration of 100 ng/ml by addition to the basolateral culture medium for two sequential 24-hr incubations prior to AAV infection. Transient disruption of tight junctions was achieved by treating polarized cells with 3 mM EGTA in water for 10 min. After hypotonic EGTA treatment, cultures were washed twice with culture medium and infected with 5×10^9 rAAV particles in […] on either the apical or basolateral side of support membranes.
# The transepithelial resistance of primary airway cultures was monitored with an ohm meter (EVOM; World Precision Instruments, Sarasota Fla.), as previously described (Wang et al., 1998). […] Electrodes were placed in both the mucosal and serosal compartments of the Millicell inserts and the resistance across the epithelia was recorded.
# [8] = vector to apical surface with EGTA in vector buffer, 200 cells counted
structure (smiles),measurement,setting,value
O=C(O)CN(CCOCCOCCN(CC(=O)O)CC(=O)O)CC(=O)O [EGTA],"gene transfer, apical surface of quiescent cells with EGTA/hypotonic buffer",[1],gene transfer was enhanced
same,effect of EGTA solution alone on cell proliferation (BrdU histochemistry),[2],had no effect on cell proliferation
same,time required to decrease R1 to ~20% of the controls,[3],Sixty
same,effect on proliferation,"[4]; application of H2O or EGTA to epithelia, control studies",had no effect on proliferation
same,β-gal positive cells,"[4]; pretreated with combination of water and EGTA 20 min, then vector, mean±SE, n=9",20.3±2.5%
same,β-gal positive cells,"[4]; sequential water then EGTA in water 10 min each, then vector",8±1.3%
same,share of β-gal positive cells that are basal cells,[4]; [8],36%
same,share of β-gal positive cells that are ciliated cells,[4]; [8],28%
same,share of β-gal positive cells that are intermediate cells,[4]; [8],36%
same,β-gal positive cells,"[4]; water and EGTA 20 min, then vector containing EGTA, 3 days after delivery, mean±SE, n=9",34.3±5.4%
same,EGTA concentration giving greatest gene transfer (percentage of blue cells),[5],6 to 12 mM
same,amiloride-sensitive Vt after hypotonic/EGTA treatment,[6]; 100 μM amiloride,there was no residual amiloride-sensitive Vt; also recorded: amiloride had no effect on Vt
same,tracheal Vt,[6]; hypotonic solution with 10 mM EGTA then saline with 10 mM EGTA,caused a significant fall in Vt
same,decrease in transepithelial resistance,[7],greater than 10 fold
